Assay results from patent US20100021918A1, “METHOD FOR ASSAYING ACTION OF ANTITUMOR AGENT USING SPLICING DEFECTS AS INDEX” (Eisai R&D Management Co., Ltd., priority 2007, published 2010).

System: human colon carcinoma cell strain WiDr
Assay: Microarray analysis (2), reviewed conditions, intron expression, Table 3
Assay type: cell-based
Details: treated vs control; for Fold Change (change in expression level of intron probe set): WiDr cells
Method: WiDr cells were first suspended in RPMI1640 medium (containing 10% FBS, penicillin, and streptomycin) and seeded in a 10 cm dish (2×10^6 cells/dish). After an overnight culture in an incubator with 5% carbon dioxide gas at 37° C., the medium was changed with medium containing 14 nM of (8E,12E,14E)-7-((4-cycloheptylpiperazin-1-yl)carbonyl)oxy-3,6,16,21-tetrahydroxy-6,10,12,16,20-pentamethyl-18,19-epoxytricosa-8,12,14-trien-11-olide or containing vehicle alone. After cultured for additional six hours, TRI reagent (SIGMA) were added to the cells and the cells were harvested. RNA was purified in accordance with the protocol of TRI reagent, followed by further purification with RNeasy (QIAGEN). Absorbance at 260 nm was measured to quantify an amount of RNA. This experiment was repeated three times and RNA samples (n=3) were prepared.
Ribosomal RNA was removed from 1 μg of each total RNA of control cells (n=3) and cells with the treatment (n=3) by using RiboMinus Human/Mouse Transcriptome Isolation Kit (Invitrogen). Single stranded cDNA synthesis, double stranded cDNA synthesis, cRNA synthesis, second single stranded cDNA synthesis, cDNA fragmentation, and cDNA labeling in order were carried out for the total RNA from which ribosomal RNA was removed, by using GeneChip Whole Transcript Sense Target Labeling and Control Reagents (Affymetrix) to make a cDNA probe. The cDNA probe was used for hybridization with Human Exon 1.0 ST Array (Affymetrix). The array was washed and stained, and luminescence intensity was measured by a scanner.
Analysis conditions were reviewed in the data used in Example 3. Genes containing increased introns upon treatment with (8E,12E,14E)-7-((4-cycloheptylpiperazin-1-yl)carbonyl)oxy-3,6,16,21-tetrahydroxy-6,10,12,16,20-pentamethyl-18,19-epoxytricosa-8,12,14-trien-11-olide were identified.
In order to consider the analysis conditions, variations in the data from the samples with identical conditions were studied. […] It turned out that, by analyzing under conditions where the expression level was more than 100 and change in the expression level was more than five times, a probe set with increased expression can be extracted.
Probe sets showing that the normalized change in the level expression of the probe set in the group with the treatment was more than 5 times; the expression level of the probe set and the gene in the group with the treatment were more than 100; and probe set annotation was “extended, full, free”, were picked out. Welch's t-test was conducted with the probe sets extracted for the treated group and the control group to determine a p and q value. A gene containing the probe sets with the q value of less than 5% was determined as a candidate gene with increased expression level of the intron regions (Table 3).
In Table 3, for each gene evaluated, gene name (Gene Name), abbreviated name (Gene Symbol), accession number (Accession), alias name (Synonym), transcription cluster number in Human Exon 1.0 ST Array (Human Exon 1.0 ST Array Transcript Cluster ID), chromosome number (Chromosome), type of strand (Strand), start region (Start), stop region (Stop), and change in expression level (Fold Change) were respectively shown.

For `CCC(O)C(C)C1OC1CC(C)(O)/C=C/C=C(\C)C1OC(=O)CC(O)CCC(C)(O)C(OC(=O)N2CCN(C3CCCCCC3)CC2)/C=C/C1C` (stereo not drawn) [E7107, (8E,12E,14E)-7-((4-cycloheptylpiperazin-1-yl)carbonyl)oxy-3,6,16,21-tetrahydroxy-6,10,12,16,20-pentamethyl-18,19-epoxytricosa-8,12,14-trien-11-olide], the “Fold Change” value (gene AMD1, intron expression) was 7.90, the “Fold Change” value (gene ANLN, intron expression) was 7.90 and the “Fold Change” value (gene ANTXR2, intron expression) was 7.51. The “Fold Change” value (gene API5, intron expression) was 7.77, the “Fold Change” value (gene ATAD2, intron expression) was 7.69 and the “Fold Change” value (gene ATN1, change in expression level) was 14.70. For the same compound, the “Fold Change” value (gene AZIN1, intron expression) was 7.51, the “Fold Change” value (gene BAT1 // ATP6V1G2, intron expression) was 7.87 and the “Fold Change (change in expression level of intron probe set)” value (gene BAZ1B, transcript cluster 3056044) was 5.01. The “Fold Change” value (gene BCL7B, intron expression) was 7.82, the “Fold Change” value (gene BIRC6, change in expression level) was 15.96 and the “Fold Change” value (gene BNIP2, change in expression level) was 15.96. The “Fold Change (change in expression level of intron probe set)” value (gene BTF3L4, transcript cluster 2336271) was 5.01, the “Fold Change” value (gene C1orf160, intron expression) was 7.69 and the “Fold Change” value (gene C4orf30, intron expression) was 7.53. The “Fold Change” value (gene C10orf119, intron expression) was 7.55, the “Fold Change” value (gene C11orf57, intron expression) was 7.54 and the “Fold Change” value (gene C12orf44, intron expression) was 7.51. The “Fold Change” value (gene C15orf42, change in expression level) was 26.27, the “Fold Change (change in expression level of intron probe set)” value (gene CDCA5, transcript cluster 3377423) was 5.02 and the “Fold Change” value (gene CENTD1, intron expression) was 7.60. The “Fold Change” value (gene CERK, intron expression) was 7.52, the “Fold Change” value (gene CGI-09, change in expression level) was 16.01 and the “Fold Change” value (gene CHCHD3, intron expression) was 7.75. For the same compound, the “Fold Change” value (gene CLK3, intron expression) was 7.91, the “Fold Change” value (gene CRSP6, intron expression) was 7.49 and the “Fold Change” value (gene CSNK2A1 // CSNK2A1P, intron expression) was 7.87. For the same compound, the “Fold Change” value (gene DDX17, change in expression level) was 15.42, the “Fold Change” value (gene DDX18 // WNT8B, intron expression) was 7.70 and the “Fold Change” value (gene DDX23, change in expression level) was 15.78. The “Fold Change” value (gene DEDD, intron expression) was 7.89, the “Fold Change” value (gene DPH1 // OVCA2, intron expression) was 7.64 and the “Fold Change” value (gene EEF1A1, intron expression) was 7.70. The “Fold Change” value (gene EEF1B2, intron expression) was 7.78, the “Fold Change” value (gene EGFR, intron expression) was 7.77 and the “Fold Change (change in expression level of intron probe set)” value (gene EIF3S1, transcript cluster 3591963) was 5.02. For the same compound, the “Fold Change” value (gene EIF4G2, intron expression) was 7.60, the “Fold Change” value (gene FBXL11, intron expression) was 7.57 and the “Fold Change (change in expression level of intron probe set)” value (gene FBXO28, transcript cluster 2382336) was 5.02. The “Fold Change” value (gene FDFT1, intron expression) was 7.90, the “Fold Change” value (gene FEN1, change in expression level) was 14.75 and the “Fold Change” value (gene FOXM1, intron expression) was 7.52. The “Fold Change” value (gene GDI1, intron expression) was 7.73, the “Fold Change” value (gene GTF2H1, intron expression) was 7.62 and the “Fold Change” value (gene GTF3C2, intron expression) was 7.63. For the same compound, the “Fold Change” value (gene GTPBP4, intron expression) was 7.79, the “Fold Change” value (gene HIRA, intron expression) was 7.82 and the “Fold Change” value (gene HSP90AA1 // HSP90AA2 // HSP90AA6P, intron expression) was 7.53. For the same compound, the “Fold Change (change in expression level of intron probe set)” value (gene IDH3B, transcript cluster 3895075) was 5.01, the “Fold Change” value (gene ILF3, intron expression) was 7.68 and the “Fold Change” value (gene IRS2, intron expression) was 7.68. For the same compound, the “Fold Change” value (gene ITGB4BP, intron expression) was 7.55, the “Fold Change” value (gene ITGB6, intron expression) was 7.88 and the “Fold Change” value (gene JOSD3 // SNORA25 // SNORA32 // SNORA18, intron expression) was 7.81. The “Fold Change” value (gene KCTD10, intron expression) was 7.48, the “Fold Change” value (gene KIAA0174, change in expression level) was 14.78 and the “Fold Change” value (gene KIAA1967, intron expression) was 7.49. For the same compound, the “Fold Change” value (gene KITLG, intron expression) was 7.58, the “Fold Change” value (gene KLHL18, change in expression level) was 15.00 and the “Fold Change” value (gene MAP2K3, intron expression) was 7.70. The “Fold Change” value (gene MAP3K11, intron expression) was 7.77, the “Fold Change” value (gene MKL1, intron expression) was 7.93 and the “Fold Change (change in expression level of intron probe set)” value (gene MLL5, transcript cluster 3017547) was 5.02. For the same compound, the “Fold Change” value (gene MRPL17, intron expression) was 7.62, the “Fold Change” value (gene MTF2, intron expression) was 7.63 and the “Fold Change” value (gene MYST2, intron expression) was 7.60. The “Fold Change” value (gene NDUFA5, intron expression) was 7.48, the “Fold Change” value (gene NONO, intron expression) was 7.64 and the “Fold Change” value (gene NOP5/NOP58, intron expression) was 7.73. For the same compound, the “Fold Change” value (gene PAK1IP1 // C20orf7, change in expression level) was 15.04, the “Fold Change” value (gene PELI1, change in expression level) was 27.36 and the “Fold Change” value (gene PEX5, intron expression) was 7.53. For the same compound, the “Fold Change” value (gene PHF12, intron expression) was 7.73, the “Fold Change (change in expression level of intron probe set)” value (gene PIK4CB // RFX5, transcript cluster 2434925) was 5.03 and the “Fold Change (change in expression level of intron probe set)” value (gene POLR3O, transcript cluster 2432647) was 5.01. The “Fold Change” value (gene POMZP3, intron expression) was 7.56, the “Fold Change” value (gene PPP6C, intron expression) was 7.91 and the “Fold Change” value (gene PPRC1, intron expression) was 7.86. For the same compound, the “Fold Change” value (gene PRPF40A, intron expression) was 7.89, the “Fold Change” value (gene RBM5, intron expression) was 7.69 and the “Fold Change” value (gene RPS6KB1, intron expression) was 7.73. The “Fold Change” value (gene SAFB2, intron expression) was 7.64, the “Fold Change” value (gene SAPS3, change in expression level) was 15.25 and the “Fold Change” value (gene SDCCAG3 // SNAPC4, intron expression) was 7.49. For the same compound, the “Fold Change (change in expression level of intron probe set)” value (gene SHB // CKAP2 // MCART1, transcript cluster 3205659) was 5.00, the “Fold Change” value (gene SIN3A, intron expression) was 7.60 and the “Fold Change” value (gene SMAD5, intron expression) was 7.77. For the same compound, the “Fold Change” value (gene SNIP1, intron expression) was 7.72, the “Fold Change” value (gene SNRP70, intron expression) was 7.52 and the “Fold Change” value (gene SPOP, intron expression) was 7.71. For the same compound, the “Fold Change” value (gene SPRED2, change in expression level) was 15.03, the “Fold Change (change in expression level of intron probe set)” value (gene SPTLC2, transcript cluster 3573152) was 5.02 and the “Fold Change” value (gene STARD7, intron expression) was 7.65. The “Fold Change” value (gene STIP1, intron expression) was 7.71, the “Fold Change” value (gene SUPV3L1, change in expression level) was 14.99 and the “Fold Change” value (gene TBC1D10B, intron expression) was 7.74. For the same compound, the “Fold Change” value (gene TCP1, intron expression) was 7.92, the “Fold Change” value (gene THRAP1, intron expression) was 7.84 and the “Fold Change” value (gene TMEM2, intron expression) was 7.52. The “Fold Change” value (gene TOP1, intron expression) was 7.93, the “Fold Change” value (gene TXNDC9 // LYG2, intron expression) was 7.69 and the “Fold Change” value (gene UBE2J1, intron expression) was 7.66. The “Fold Change” value (gene USP36, intron expression) was 7.92, the “Fold Change” value (gene VAPA, intron expression) was 7.56 and the “Fold Change” value (gene WAC, intron expression) was 7.92. For the same compound, the “Fold Change” value (gene WDR3, intron expression) was 7.63, the “Fold Change” value (gene YIPF3 // C6orf154, intron expression) was 7.61 and the “Fold Change” value (gene YME1L1, intron expression) was 7.84. For the same compound, the “Fold Change” value (gene YTHDF1, intron expression) was 7.83, the “Fold Change” value (gene ZNF148, intron expression) was 7.69 and the “Fold Change” value (gene ZNF473, intron expression) was 7.87.
